Results: ChEMBL document CHEMBL1201862, “PubChem BioAssay data set” (2004)
Calls of active or inactive are those of the source.

Experiments:
[1] = system: HEK293; assay: NOD2 signaling inhibitors in MDP-stimulated cells, cell-based, uHTS, luminescence (AID 2001); format: functional; conditions: Homo sapiens
[2] = target: Nucleotide-binding oligomerization domain-containing protein 2 (Homo sapiens, UniProt Q9HC29); assay: PubChem AID 2334; format: functional
[3] = system: HEK293; assay: cells; format: functional, cell-based; conditions: Homo sapiens
[4] = system: HEK293; assay: cells; conditions: Homo sapiens
[5] = antiviral protection against BTV-induced cell death – arbovirus, BSR cells, confirmation (AID 1250); format: functional;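 also: protection from viral cytopathic effect measured as cell viability by ATP luminescence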
[6] = target: Tumor necrosis factor (Homo sapiens, UniProt P01375); assay: analog potency on TNFa NF-kB signaling – cell-based, revised, SAR follow-up (AID 2337); format: functional
Chain of Tumor necrosis factor (P01375 whole entry): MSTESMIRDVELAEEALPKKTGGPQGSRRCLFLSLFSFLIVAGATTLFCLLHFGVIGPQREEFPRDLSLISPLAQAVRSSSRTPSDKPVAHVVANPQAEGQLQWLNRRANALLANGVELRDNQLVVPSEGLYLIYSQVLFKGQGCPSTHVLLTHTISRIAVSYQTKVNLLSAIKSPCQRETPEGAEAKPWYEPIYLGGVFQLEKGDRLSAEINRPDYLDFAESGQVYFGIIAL

[7] = system: HEK293; assay: inhibition of NOD1-driven NF-kB reporter – cell-based, luminescence, uHTS, primary screen (AID 1578); format: functional; conditions: Homo sapiens
[8] = system: HEK293; assay: cells; format: functional, cell-based; conditions: Homo sapiens; remark: listed apart in the source
[9] = target: T1, Nucleotide-binding oligomerization domain-containing protein 1 (Homo sapiens, UniProt Q9Y239); assay: blockers of NOD1 pathway activity – revised, SAR follow-up (AID 2333); format: functional
T1 sequence (Q9Y239 whole entry): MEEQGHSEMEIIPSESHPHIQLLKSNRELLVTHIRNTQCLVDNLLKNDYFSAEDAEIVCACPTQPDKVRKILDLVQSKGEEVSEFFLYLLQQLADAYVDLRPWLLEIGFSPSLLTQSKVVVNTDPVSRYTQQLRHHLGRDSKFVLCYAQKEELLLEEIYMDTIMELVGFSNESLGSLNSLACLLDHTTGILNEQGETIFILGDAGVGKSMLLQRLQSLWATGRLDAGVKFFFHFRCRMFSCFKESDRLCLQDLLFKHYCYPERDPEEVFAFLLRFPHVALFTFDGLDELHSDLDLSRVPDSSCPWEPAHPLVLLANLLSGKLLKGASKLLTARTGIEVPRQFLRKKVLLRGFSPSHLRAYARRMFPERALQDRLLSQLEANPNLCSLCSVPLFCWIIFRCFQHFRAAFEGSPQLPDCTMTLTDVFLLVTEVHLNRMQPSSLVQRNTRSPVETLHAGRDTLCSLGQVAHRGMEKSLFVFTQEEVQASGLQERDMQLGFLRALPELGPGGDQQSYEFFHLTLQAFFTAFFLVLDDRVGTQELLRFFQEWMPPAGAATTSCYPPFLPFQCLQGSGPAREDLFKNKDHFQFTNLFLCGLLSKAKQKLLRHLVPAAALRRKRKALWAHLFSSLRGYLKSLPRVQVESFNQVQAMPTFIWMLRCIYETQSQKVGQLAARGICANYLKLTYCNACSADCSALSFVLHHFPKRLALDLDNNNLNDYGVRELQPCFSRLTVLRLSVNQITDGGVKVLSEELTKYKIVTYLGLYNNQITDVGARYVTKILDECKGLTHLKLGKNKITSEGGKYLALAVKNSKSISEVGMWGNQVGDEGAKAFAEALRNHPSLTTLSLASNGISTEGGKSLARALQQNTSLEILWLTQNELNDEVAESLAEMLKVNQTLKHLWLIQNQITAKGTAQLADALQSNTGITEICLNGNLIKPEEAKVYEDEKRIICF

[10] = target: Dual specificity protein phosphatase 3 (Homo sapiens, UniProt P51452); assay: inhibition constants for human DUSP3 – biochemical, colorimetric, SAR follow-up (AID 2004)
Chain of Dual specificity protein phosphatase 3 (P51452 whole entry): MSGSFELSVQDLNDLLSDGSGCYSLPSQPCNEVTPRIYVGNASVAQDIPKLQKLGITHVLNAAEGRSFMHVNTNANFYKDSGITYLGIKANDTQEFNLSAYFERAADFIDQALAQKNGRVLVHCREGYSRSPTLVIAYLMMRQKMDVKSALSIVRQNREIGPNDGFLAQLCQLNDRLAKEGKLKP

[11] = target: Histone-lysine N-methyltransferase NSD2 (Homo sapiens, UniProt O96028); format: biochemical
Chain of Histone-lysine N-methyltransferase NSD2 (O96028 whole entry): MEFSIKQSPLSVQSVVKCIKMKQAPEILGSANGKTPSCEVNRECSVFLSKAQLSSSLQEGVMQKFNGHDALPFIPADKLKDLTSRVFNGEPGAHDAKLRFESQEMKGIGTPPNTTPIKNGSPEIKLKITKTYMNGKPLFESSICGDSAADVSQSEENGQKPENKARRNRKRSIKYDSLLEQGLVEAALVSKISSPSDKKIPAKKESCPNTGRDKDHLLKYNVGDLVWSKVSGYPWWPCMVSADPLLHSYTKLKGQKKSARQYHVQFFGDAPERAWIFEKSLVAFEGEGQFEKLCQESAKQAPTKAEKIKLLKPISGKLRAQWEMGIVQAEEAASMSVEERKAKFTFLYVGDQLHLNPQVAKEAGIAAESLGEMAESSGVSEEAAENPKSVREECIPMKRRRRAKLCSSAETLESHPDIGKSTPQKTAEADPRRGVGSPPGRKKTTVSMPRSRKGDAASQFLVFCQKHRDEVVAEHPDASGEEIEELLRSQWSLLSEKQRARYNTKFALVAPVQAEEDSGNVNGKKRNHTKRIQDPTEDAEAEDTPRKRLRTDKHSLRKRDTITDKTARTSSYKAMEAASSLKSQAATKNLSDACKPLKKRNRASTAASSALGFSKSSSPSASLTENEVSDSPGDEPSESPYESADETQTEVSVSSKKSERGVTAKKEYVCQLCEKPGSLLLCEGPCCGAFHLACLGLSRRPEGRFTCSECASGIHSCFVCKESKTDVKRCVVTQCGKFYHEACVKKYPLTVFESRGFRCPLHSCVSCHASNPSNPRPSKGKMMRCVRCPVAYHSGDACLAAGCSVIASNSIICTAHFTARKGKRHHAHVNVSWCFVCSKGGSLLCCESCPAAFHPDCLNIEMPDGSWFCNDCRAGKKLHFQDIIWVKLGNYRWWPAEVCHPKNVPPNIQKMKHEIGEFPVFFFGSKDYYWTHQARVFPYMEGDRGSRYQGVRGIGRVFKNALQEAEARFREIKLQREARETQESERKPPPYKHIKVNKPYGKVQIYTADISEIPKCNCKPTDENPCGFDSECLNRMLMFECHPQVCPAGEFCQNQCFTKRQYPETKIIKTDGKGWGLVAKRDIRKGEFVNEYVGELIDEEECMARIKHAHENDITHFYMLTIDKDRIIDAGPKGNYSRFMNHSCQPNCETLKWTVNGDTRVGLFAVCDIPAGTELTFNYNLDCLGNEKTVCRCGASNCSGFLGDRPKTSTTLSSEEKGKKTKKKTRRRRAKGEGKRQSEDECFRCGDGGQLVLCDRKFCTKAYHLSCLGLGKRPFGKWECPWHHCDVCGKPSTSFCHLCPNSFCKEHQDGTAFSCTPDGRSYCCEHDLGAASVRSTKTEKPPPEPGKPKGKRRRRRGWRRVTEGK

[12] = target: T2, Tyrosyl-DNA phosphodiesterase 2 (Homo sapiens, UniProt O95551); assay: potency against TDP2 phosphodiesterase activity – biochemical, epi absorbance, IC50, dose response (AID 743297)
T2 sequence (O95551 whole entry): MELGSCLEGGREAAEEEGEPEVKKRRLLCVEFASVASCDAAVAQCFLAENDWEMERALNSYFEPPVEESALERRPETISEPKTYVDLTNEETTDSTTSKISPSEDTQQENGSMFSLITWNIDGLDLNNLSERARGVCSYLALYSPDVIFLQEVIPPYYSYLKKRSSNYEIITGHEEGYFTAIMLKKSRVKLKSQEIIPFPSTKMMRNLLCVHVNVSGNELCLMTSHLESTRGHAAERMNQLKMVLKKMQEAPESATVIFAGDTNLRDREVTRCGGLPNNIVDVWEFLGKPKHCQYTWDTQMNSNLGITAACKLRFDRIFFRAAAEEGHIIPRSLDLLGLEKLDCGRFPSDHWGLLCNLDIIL

[13] = target: T3, Sentrin-specific protease 8 (Homo sapiens, UniProt Q96LD8); format: functional
T3 sequence (Q96LD8 whole entry): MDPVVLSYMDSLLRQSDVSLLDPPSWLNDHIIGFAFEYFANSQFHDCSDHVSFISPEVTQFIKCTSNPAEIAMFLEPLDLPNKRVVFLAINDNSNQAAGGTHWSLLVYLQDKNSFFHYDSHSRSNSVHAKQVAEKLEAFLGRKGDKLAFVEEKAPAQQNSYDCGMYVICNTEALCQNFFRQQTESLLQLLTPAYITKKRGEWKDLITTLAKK

[14] = target: 14-3-3 protein gamma (Homo sapiens, UniProt P61981); assay: modulators of 14-3-3 gamma client binding – dose response (AID 711); format: functional
Chain of 14-3-3 protein gamma (P61981 whole entry): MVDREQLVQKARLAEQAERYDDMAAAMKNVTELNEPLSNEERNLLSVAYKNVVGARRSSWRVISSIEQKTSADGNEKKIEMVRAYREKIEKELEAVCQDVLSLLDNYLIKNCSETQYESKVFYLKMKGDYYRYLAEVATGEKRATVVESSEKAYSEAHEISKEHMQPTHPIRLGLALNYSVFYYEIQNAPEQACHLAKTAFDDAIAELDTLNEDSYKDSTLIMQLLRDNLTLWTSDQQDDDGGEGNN

[15] = target: T4, Replicative DNA helicase DnaB (Mycobacterium tuberculosis, UniProt P9WMR3); assay: DnaB intein splicing inhibitors, dose response, biochemical, cell-free fluorescence (AID 449749); format: functional
T4 sequence (P9WMR3 whole entry): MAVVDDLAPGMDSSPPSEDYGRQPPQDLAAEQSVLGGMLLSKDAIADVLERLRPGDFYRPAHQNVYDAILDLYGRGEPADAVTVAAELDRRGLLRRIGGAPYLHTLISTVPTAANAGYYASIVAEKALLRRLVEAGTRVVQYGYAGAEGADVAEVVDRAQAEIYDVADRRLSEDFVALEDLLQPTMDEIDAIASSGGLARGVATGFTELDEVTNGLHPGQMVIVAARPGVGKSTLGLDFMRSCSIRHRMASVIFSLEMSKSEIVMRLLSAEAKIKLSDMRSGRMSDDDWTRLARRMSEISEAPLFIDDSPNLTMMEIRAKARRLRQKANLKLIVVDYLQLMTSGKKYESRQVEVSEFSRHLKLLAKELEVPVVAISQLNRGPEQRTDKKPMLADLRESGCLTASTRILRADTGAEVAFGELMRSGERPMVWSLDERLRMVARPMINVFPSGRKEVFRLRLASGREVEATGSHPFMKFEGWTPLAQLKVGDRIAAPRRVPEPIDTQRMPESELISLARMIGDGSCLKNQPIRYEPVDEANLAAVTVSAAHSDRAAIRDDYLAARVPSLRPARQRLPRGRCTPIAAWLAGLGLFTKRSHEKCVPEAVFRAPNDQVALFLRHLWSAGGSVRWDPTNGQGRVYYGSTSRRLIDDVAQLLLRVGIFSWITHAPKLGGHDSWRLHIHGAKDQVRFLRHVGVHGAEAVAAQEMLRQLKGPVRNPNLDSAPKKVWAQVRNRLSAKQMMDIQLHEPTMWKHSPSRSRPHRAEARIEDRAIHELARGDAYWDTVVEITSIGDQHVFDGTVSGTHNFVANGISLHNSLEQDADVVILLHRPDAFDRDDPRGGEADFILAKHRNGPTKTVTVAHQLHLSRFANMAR

[16] = target: T5, Fibrinogen beta chain (Homo sapiens, UniProt P02675); assay: Fluorescence polarization-based biochemical high throughput dose response assay to identify inhibitors that disrupt the binding of a cyclic peptide (Tn6) to the fibrin proteolytic product D-Dimer and fragment E complex [DD(E )].
T5 sequence (P02675 whole entry, the tested form may be a part): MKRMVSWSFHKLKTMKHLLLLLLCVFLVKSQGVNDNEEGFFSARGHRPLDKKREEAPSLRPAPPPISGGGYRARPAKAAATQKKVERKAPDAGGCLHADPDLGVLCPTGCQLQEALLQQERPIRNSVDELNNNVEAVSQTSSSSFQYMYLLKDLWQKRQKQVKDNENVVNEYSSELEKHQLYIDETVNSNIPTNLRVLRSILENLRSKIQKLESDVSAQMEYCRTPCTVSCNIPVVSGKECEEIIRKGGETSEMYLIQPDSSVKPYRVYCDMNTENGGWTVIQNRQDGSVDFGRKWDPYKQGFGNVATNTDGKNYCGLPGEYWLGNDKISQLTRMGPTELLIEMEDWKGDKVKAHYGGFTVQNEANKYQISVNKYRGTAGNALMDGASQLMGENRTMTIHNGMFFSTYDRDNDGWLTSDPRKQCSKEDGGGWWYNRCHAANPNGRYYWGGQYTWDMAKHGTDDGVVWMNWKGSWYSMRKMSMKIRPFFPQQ

[17] = target: T3, Sentrin-specific protease 8; format: functional; remark: listed apart in the source
[18] = target: T5, Fibrinogen beta chain; assay: Fluorescence polarization-based biochemical high throughput dose response assay to identify inhibitors that disrupt the binding of a cyclic peptide (Tn7) to the fibrin proteolytic product D-Dimer and fragment E complex [DD(E )].
[19] = target: T6, Protein RecA (Mycobacterium tuberculosis, UniProt P9WHJ3); assay: Fluorescence Cell-Free Homogeneous Dose Retest to Identify Inhibitors of RecA-Intein Splicing Activity. [Related pubchem assays (depositor defined):AID2097, AID2223, AID489010, AID492950]; format: functional
T6 sequence (P9WHJ3 whole entry): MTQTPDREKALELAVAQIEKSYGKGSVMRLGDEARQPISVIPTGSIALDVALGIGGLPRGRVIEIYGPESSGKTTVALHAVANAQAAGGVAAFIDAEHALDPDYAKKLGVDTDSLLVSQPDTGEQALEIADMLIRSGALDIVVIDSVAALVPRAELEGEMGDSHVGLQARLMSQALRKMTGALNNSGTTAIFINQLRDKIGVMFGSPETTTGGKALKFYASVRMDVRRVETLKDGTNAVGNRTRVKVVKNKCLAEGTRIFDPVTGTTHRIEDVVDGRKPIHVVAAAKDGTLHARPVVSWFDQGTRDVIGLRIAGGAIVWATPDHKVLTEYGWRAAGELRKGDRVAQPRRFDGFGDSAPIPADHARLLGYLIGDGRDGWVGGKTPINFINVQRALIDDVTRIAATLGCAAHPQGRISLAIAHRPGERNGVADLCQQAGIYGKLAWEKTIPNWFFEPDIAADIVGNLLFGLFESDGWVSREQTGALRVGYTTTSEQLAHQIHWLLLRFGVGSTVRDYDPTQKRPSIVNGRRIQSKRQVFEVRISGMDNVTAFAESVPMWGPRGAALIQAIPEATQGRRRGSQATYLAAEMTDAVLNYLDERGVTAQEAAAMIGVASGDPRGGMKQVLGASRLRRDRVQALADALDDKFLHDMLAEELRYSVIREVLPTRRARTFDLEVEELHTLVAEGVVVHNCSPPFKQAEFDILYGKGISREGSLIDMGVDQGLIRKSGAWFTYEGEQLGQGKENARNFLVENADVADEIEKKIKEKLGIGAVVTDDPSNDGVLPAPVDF

[20] = target: Glutathione-S-transferase (Schistosoma japonicum, UniProt Q26513); assay: GST-antibody interaction or FRET quenching – biochemical, TR-FRET, artefact control for Vif-APOBEC3G degradation inhibitor project, dose response (AID 1117362); format: functional
Chain of Glutathione-S-transferase (Q26513 whole entry): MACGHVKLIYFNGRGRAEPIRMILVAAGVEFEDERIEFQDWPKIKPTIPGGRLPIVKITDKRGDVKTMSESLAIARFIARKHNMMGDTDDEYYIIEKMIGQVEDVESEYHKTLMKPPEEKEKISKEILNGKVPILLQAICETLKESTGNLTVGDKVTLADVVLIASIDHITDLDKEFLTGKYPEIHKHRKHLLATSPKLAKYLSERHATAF

[21] = system: HeLa; assay: viability loss in HeLa cells – cell-based, 24 h, cherry-picked samples, cytotoxicity control, dose response (AID 504726); format: functional; conditions: Homo sapiens;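 also: potency for cytotoxicity as loss of luminescence signal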

Chain of Nucleotide-binding oligomerization domain-containing protein 2 (Q9HC29 whole entry, the tested form may be a part): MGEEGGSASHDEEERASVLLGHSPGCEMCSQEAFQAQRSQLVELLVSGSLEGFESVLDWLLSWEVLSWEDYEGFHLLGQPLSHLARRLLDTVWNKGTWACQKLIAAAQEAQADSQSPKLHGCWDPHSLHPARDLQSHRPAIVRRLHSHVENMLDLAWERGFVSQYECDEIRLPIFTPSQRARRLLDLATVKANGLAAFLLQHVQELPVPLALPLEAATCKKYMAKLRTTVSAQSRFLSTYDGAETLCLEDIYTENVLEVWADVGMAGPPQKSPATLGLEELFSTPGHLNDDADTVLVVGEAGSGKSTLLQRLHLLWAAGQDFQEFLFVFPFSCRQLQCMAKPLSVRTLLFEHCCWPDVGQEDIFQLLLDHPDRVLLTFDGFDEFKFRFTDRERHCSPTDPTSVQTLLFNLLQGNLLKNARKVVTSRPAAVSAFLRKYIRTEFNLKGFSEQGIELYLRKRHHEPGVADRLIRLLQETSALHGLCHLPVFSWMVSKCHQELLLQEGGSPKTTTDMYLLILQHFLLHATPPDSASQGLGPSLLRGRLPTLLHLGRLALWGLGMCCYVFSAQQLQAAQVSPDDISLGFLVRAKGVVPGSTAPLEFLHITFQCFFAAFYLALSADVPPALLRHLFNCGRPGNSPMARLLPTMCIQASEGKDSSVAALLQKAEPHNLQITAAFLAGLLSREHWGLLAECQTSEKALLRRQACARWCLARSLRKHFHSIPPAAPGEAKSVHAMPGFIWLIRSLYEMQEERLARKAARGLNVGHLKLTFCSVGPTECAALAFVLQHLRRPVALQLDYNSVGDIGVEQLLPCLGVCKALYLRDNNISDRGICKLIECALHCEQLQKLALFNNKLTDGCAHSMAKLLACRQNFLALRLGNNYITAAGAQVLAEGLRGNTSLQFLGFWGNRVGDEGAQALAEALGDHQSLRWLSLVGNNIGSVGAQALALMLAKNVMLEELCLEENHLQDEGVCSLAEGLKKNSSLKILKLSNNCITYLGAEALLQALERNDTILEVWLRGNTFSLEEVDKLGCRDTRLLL

For `CS(=O)(=O)c1ccc2nc(NC(=O)c3cccc(NS(=O)(=O)c4ccc(F)c(F)c4)c3)sc2c1`, the IC50 [1] was > 20 µM (inactive), the IC50 [2] was 18.4 µM (active) and the IC50 [3] was > 20 µM (inactive). For the same molecule, the IC50 [4] was > 20 µM (inactive), the IC50 [5] was 23.7 µM (active) and the IC50 [6] was 16.9 µM (active). For the same molecule, the EC50 [7] was 5.5 µM (active), the IC50 [8] was > 20 µM (inactive) and the IC50 [9] was 3.16 µM (active).

In the case of `O=C1/C(=C\c2ccc(-c3cccc(Cl)c3)o2)SC(=S)N1CCS(=O)(=O)O`, the Ki [10] is reported as 3.13 µM (active).

For `Cc1cc2c(N)cccc2nn1`, the AC50 [11] was 4.77 µM (active), the IC50 [12] was 27.2 µM (inactive) and the IC50 [13] was 2.14 µM (active). The IC50 [14] was > 50 µM (not active), the AC50 [15] was > 380 µM (inactive) and the IC50 [16] was > 83.3 µM (inactive). For the same molecule, the IC50 [17] was 6 µM (active), the IC50 [18] was > 83.3 µM (inactive) and the EC50 [19] was 54.6 µM (active). The IC50 [20] was 52.6 µM (active) and the AC50 [21] was > 350 µM (inactive).
